Assay results from ChEMBL document CHEMBL6109159, “Discovery of a Potent and Selective Protein Arginine Methyltransferase 5 (PRMT5) PROTAC Degrader” (J Med Chem, 2025).
Calls of active or inactive are those of the source. The calls are words filed in the database; no cut-off is given here.

How the values were obtained:
Type in all cases: cell-based
[1] = molecular target: T1, von Hippel-Lindau disease tumor suppressor/Protein arginine N-methyltransferase 5 (Homo sapiens, UniProt O14744+P40337); assay: PROTAC activity at […]/VHL in human MDA-MB-468 cells assessed as relative protein level at 0.5 uM measured after 24 hrs by Western blot analysis
T1 sequence (O14744 whole entry, looked up): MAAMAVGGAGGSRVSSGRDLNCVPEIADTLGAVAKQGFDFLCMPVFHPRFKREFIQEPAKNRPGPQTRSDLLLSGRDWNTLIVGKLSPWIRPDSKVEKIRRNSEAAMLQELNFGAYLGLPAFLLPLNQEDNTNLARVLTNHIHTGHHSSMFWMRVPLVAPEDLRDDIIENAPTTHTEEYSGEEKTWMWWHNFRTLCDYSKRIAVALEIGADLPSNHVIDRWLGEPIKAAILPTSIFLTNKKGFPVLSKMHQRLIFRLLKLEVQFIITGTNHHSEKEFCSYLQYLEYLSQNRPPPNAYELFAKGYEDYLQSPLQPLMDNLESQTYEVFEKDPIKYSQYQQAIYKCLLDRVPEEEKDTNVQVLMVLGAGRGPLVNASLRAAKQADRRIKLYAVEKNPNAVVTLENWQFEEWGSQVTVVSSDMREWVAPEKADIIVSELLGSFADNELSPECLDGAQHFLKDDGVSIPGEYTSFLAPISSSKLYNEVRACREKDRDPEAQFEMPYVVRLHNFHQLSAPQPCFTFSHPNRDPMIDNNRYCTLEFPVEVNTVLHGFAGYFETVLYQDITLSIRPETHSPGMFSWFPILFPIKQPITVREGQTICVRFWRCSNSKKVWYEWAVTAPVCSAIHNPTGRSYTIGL
T1 sequence (P40337 whole entry, looked up): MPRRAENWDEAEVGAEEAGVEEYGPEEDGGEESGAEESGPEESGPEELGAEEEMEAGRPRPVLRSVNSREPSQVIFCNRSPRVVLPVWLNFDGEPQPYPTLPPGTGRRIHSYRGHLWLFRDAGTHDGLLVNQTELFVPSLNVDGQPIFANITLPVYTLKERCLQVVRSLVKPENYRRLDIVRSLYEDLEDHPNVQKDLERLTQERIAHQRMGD

[2] = molecular target: T1, von Hippel-Lindau disease tumor suppressor/Protein arginine N-methyltransferase 5; assay: PROTAC activity at PRMT5/VHL in human MDA-MB-468 cells assessed as relative protein level at 5 uM measured after 24 hrs by Western blot analysis
[3] = molecular target: T2, von Hippel-Lindau disease tumor suppressor/Methylosome protein WDR77 (Homo sapiens, UniProt Q9BQA1+P40337); assay: PROTAC activity at MEP50/VHL in human MDA-MB-468 cells assessed as relative protein level at 0.5 uM measured after 24 hrs by Western blot analysis
T2 sequence (P40337 whole entry, looked up): as above
T2 sequence (Q9BQA1 whole entry, looked up): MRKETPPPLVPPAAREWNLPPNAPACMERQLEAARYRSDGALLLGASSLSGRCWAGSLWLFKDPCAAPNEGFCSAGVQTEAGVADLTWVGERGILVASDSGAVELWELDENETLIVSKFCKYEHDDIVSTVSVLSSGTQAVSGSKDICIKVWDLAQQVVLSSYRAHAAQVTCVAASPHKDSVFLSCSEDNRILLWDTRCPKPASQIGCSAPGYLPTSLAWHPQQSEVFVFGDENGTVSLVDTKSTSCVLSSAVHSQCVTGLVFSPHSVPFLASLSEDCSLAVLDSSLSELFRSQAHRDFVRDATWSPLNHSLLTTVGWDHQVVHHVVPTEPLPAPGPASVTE

[4] = molecular target: T2, von Hippel-Lindau disease tumor suppressor/Methylosome protein WDR77; assay: PROTAC activity at MEP50/VHL in human MDA-MB-468 cells assessed as relative protein level at 5 uM measured after 24 hrs by Western blot analysis

SMILES	Activity [1]	Activity [2]	Activity [3]	Activity [4]
Cc1ncsc1-c1ccc([C@H](C)NC(=O)[C@@H]2C[C@@H](O)CN2C(=O)[C@@H](NC(=O)COCCOCCOCCOCCOCC(=O)N2CCC(Nc3cc(C(=O)NC[C@H](O)CN4CCc5ccccc5C4)ncn3)CC2)C(C)(C)C)cc1	Active	Active	Active	Active
Cc1ncsc1-c1ccc([C@H](C)NC(=O)[C@@H]2C[C@@H](O)CN2C(=O)[C@@H](NC(=O)CCOCCOCCOCCOCCOCCC(=O)N2CCC(Nc3cc(C(=O)NC[C@H](O)CN4CCc5ccccc5C4)ncn3)CC2)C(C)(C)C)cc1	Active	Active	Active	Active
Cc1ncsc1-c1ccc(CNC(=O)[C@@H]2C[C@@H](O)CN2C(=O)[C@@H](NC(=O)C2(F)CC2)C(C)(C)C)c(OCC(=O)NCCOCCOCCC(=O)N2CCC(Nc3cc(C(=O)NC[C@H](O)CN4CCc5ccccc5C4)ncn3)CC2)c1	inactive	inactive	inactive	inactive
Cc1ncsc1-c1ccc([C@H](CC(=O)NCCC(=O)N2CCC(Nc3cc(C(=O)NC[C@H](O)CN4CCc5ccccc5C4)ncn3)CC2)NC(=O)[C@@H]2C[C@@H](O)CN2C(=O)[C@@H](NC(=O)C2(F)CC2)C(C)(C)C)cc1	Active	Active	Active	Active
Cc1ncsc1-c1ccc([C@H](C)NC(=O)[C@@H]2C[C@@H](O)CN2C(=O)[C@@H](NC(=O)CCOCCOCCOCCOCCC(=O)N2CCC(Nc3cc(C(=O)NC[C@H](O)CN4CCc5ccccc5C4)ncn3)CC2)C(C)(C)C)cc1	Active	Active	Active	Active
Cc1ncsc1-c1ccc([C@H](CC(=O)NCCOCCOCCOCCC(=O)N2CCC(Nc3cc(C(=O)NC[C@H](O)CN4CCc5ccccc5C4)ncn3)CC2)NC(=O)[C@@H]2C[C@@H](O)CN2C(=O)[C@@H](NC(=O)C2(F)CC2)C(C)(C)C)cc1	Active	Active	Active	Active
Cc1ncsc1-c1ccc([C@H](CC(=O)NCCCCCCCC(=O)N2CCC(Nc3cc(C(=O)NC[C@H](O)CN4CCc5ccccc5C4)ncn3)CC2)NC(=O)[C@@H]2C[C@@H](O)CN2C(=O)[C@@H](NC(=O)C2(F)CC2)C(C)(C)C)cc1	Active	Active	Active	Active
Cc1ncsc1-c1ccc([C@H](CC(=O)NCCOCCOCCOCCOCCC(=O)N2CCC(Nc3cc(C(=O)NC[C@H](O)CN4CCc5ccccc5C4)ncn3)CC2)NC(=O)[C@@H]2C[C@@H](O)CN2C(=O)[C@@H](NC(=O)C2(F)CC2)C(C)(C)C)cc1	Active	Active	Active	Active
Cc1ncsc1-c1ccc([C@H](CC(=O)NCC(=O)N2CCC(Nc3cc(C(=O)NC[C@H](O)CN4CCc5ccccc5C4)ncn3)CC2)NC(=O)[C@@H]2C[C@@H](O)CN2C(=O)[C@@H](NC(=O)C2(F)CC2)C(C)(C)C)cc1	Active	Active	Active	Active
Cc1ncsc1-c1ccc(CNC(=O)[C@@H]2C[C@@H](O)CN2C(=O)[C@@H](NC(=O)C2(F)CC2)C(C)(C)C)c(OCC(=O)NCCOCCC(=O)N2CCC(Nc3cc(C(=O)NC[C@H](O)CN4CCc5ccccc5C4)ncn3)CC2)c1	Active	Active	Active	Active
Cc1ncsc1-c1ccc([C@H](CC(=O)NCCCC(=O)N2CCC(Nc3cc(C(=O)NC[C@H](O)CN4CCc5ccccc5C4)ncn3)CC2)NC(=O)[C@@H]2C[C@@H](O)CN2C(=O)[C@@H](NC(=O)C2(F)CC2)C(C)(C)C)cc1	Active	Active	Active	Active
Cc1ncsc1-c1ccc(CNC(=O)[C@@H]2C[C@@H](O)CN2C(=O)[C@@H](NC(=O)C2(F)CC2)C(C)(C)C)c(OCC(=O)NCCC(=O)N2CCC(Nc3cc(C(=O)NC[C@H](O)CN4CCc5ccccc5C4)ncn3)CC2)c1	Active	Active	Active	Active
Cc1ncsc1-c1ccc([C@H](C)NC(=O)[C@@H]2C[C@@H](O)CN2C(=O)[C@@H](NC(=O)COCCOCCOCCOCCOCC(=O)N2CC(Nc3cc(C(=O)NC[C@H](O)CN4CCc5ccccc5C4)ccn3)C2)C(C)(C)C)cc1	inactive	inactive	inactive	Active
Cc1ncsc1-c1ccc(CNC(=O)[C@@H]2C[C@@H](O)CN2C(=O)[C@@H](NC(=O)C2(F)CC2)C(C)(C)C)c(OCC(=O)NCC(=O)N2CCC(Nc3cc(C(=O)NC[C@H](O)CN4CCc5ccccc5C4)ncn3)CC2)c1	Active	Active	Active	Active
Cc1ncsc1-c1ccc(CNC(=O)[C@@H]2C[C@@H](O)CN2C(=O)[C@@H](NC(=O)C2(F)CC2)C(C)(C)C)c(OCC(=O)NCCOCCOCCOCCC(=O)N2CCC(Nc3cc(C(=O)NC[C@H](O)CN4CCc5ccccc5C4)ncn3)CC2)c1	Active	Active	Active	Active
Cc1ncsc1-c1ccc(CNC(=O)[C@@H]2C[C@@H](O)CN2C(=O)[C@@H](NC(=O)C2(F)CC2)C(C)(C)C)c(OCC(=O)NCCOCCOCCOCCOCCOCCC(=O)N2CCC(Nc3cc(C(=O)NC[C@H](O)CN4CCc5ccccc5C4)ncn3)CC2)c1	inactive	inactive	inactive	Active
Cc1ncsc1-c1ccc([C@H](CC(=O)NCCCCCCC(=O)N2CCC(Nc3cc(C(=O)NC[C@H](O)CN4CCc5ccccc5C4)ncn3)CC2)NC(=O)[C@@H]2C[C@@H](O)CN2C(=O)[C@@H](NC(=O)C2(F)CC2)C(C)(C)C)cc1	Active	Active	Active	Active
Cc1ncsc1-c1ccc(CNC(=O)[C@@H]2C[C@@H](O)CN2C(=O)[C@@H](NC(=O)C2(F)CC2)C(C)(C)C)c(OCC(=O)NCCCCC(=O)N2CCC(Nc3cc(C(=O)NC[C@H](O)CN4CCc5ccccc5C4)ncn3)CC2)c1	Active	Active	Active	Active
Cc1ncsc1-c1ccc([C@H](CC(=O)NCCCCCC(=O)N2CCC(Nc3cc(C(=O)NC[C@H](O)CN4CCc5ccccc5C4)ncn3)CC2)NC(=O)[C@@H]2C[C@@H](O)CN2C(=O)[C@@H](NC(=O)C2(F)CC2)C(C)(C)C)cc1	Active	Active	Active	Active
Cc1ncsc1-c1ccc(CNC(=O)[C@@H]2C[C@@H](O)CN2C(=O)[C@@H](NC(=O)C2(F)CC2)C(C)(C)C)c(OCC(=O)NCCCCCC(=O)N2CCC(Nc3cc(C(=O)NC[C@H](O)CN4CCc5ccccc5C4)ncn3)CC2)c1	Active	Active	Active	Active
Cc1ncsc1-c1ccc(CNC(=O)[C@@H]2C[C@@H](O)CN2C(=O)[C@@H](NC(=O)C2(F)CC2)C(C)(C)C)c(OCC(=O)N2CCC(Nc3cc(C(=O)NC[C@H](O)CN4CCc5ccccc5C4)ncn3)CC2)c1	Active	Active	Active	Active
Cc1ncsc1-c1ccc([C@H](CC(=O)NCCCCC(=O)N2CCC(Nc3cc(C(=O)NC[C@H](O)CN4CCc5ccccc5C4)ncn3)CC2)NC(=O)[C@@H]2C[C@@H](O)CN2C(=O)[C@@H](NC(=O)C2(F)CC2)C(C)(C)C)cc1	Active	Active	Active	Active
Cc1ncsc1-c1ccc([C@H](CC(=O)NCCOCCOCCC(=O)N2CCC(Nc3cc(C(=O)NC[C@H](O)CN4CCc5ccccc5C4)ncn3)CC2)NC(=O)[C@@H]2C[C@@H](O)CN2C(=O)[C@@H](NC(=O)C2(F)CC2)C(C)(C)C)cc1	Active	Active	Active	Active
Cc1ncsc1-c1ccc([C@H](CC(=O)N2CCC(Nc3cc(C(=O)NC[C@H](O)CN4CCc5ccccc5C4)ncn3)CC2)NC(=O)[C@@H]2C[C@@H](O)CN2C(=O)[C@@H](NC(=O)C2(F)CC2)C(C)(C)C)cc1	Active	Active	Active	Active
Cc1ncsc1-c1ccc(CNC(=O)[C@@H]2C[C@@H](O)CN2C(=O)[C@@H](NC(=O)C2(F)CC2)C(C)(C)C)c(OCC(=O)NCCOCCOCCOCCOCCC(=O)N2CCC(Nc3cc(C(=O)NC[C@H](O)CN4CCc5ccccc5C4)ncn3)CC2)c1	inactive	inactive	inactive	Active
Cc1ncsc1-c1ccc(CNC(=O)[C@@H]2C[C@@H](O)CN2C(=O)[C@@H](NC(=O)C2(F)CC2)C(C)(C)C)c(OCC(=O)NCCCC(=O)N2CCC(Nc3cc(C(=O)NC[C@H](O)CN4CCc5ccccc5C4)ncn3)CC2)c1	Active	Active	Active	Active
Cc1ncsc1-c1ccc([C@H](CC(=O)NCCOCCC(=O)N2CCC(Nc3cc(C(=O)NC[C@H](O)CN4CCc5ccccc5C4)ncn3)CC2)NC(=O)[C@@H]2C[C@@H](O)CN2C(=O)[C@@H](NC(=O)C2(F)CC2)C(C)(C)C)cc1	inactive	inactive	inactive	inactive
